Laboratory results published in PubChem BioAssay (NCI).
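48-hour exposure; five concentrations; linearly interpolated endpoints. Here, GI50 denotes the concentration required for 50% inhibition of growth. TGI denotes the concentration required for complete inhibition of growth.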

What was measured:
Test in all cases: NCI-60 cell line screen, 48 h
[1] = test system: 786-0 renal
[2] = test system: A498 renal
[3] = test system: A549 NSCLC
[4] = test system: ACHN renal
[5] = test system: BT-549 breast
[6] = test system: CAKI-1 renal
[7] = test system: CCRF-CEM leukemia
[8] = test system: COLO 205 colon
[9] = test system: DU-145 prostate
[10] = test system: EKVX NSCLC
[11] = test system: HCC-2998 colon
[12] = test system: HCT-116 colon
[13] = test system: HCT-15 colon
[14] = test system: HL-60(TB) leukemia
[15] = test system: HOP-62 NSCLC
[16] = test system: HOP-92 NSCLC
[17] = test system: HS 578T breast
[18] = test system: HT29 colon
[19] = test system: IGROV1 ovarian
[20] = test system: K-562 leukemia
[21] = test system: KM12 colon
[22] = test system: LOX IMVI melanoma
[23] = test system: M14 melanoma
[24] = test system: MALME-3M melanoma
[25] = test system: MCF7 breast
[26] = test system: MDA-MB-231 breast
[27] = test system: MDA-MB-435
[28] = test system: MOLT-4 leukemia
[29] = test system: NCI-H226 lung
[30] = test system: NCI-H23 lung
[31] = test system: NCI-H460 lung
[32] = test system: NCI-H522 lung
[33] = test system: NCI/ADR-RES ovarian
[34] = test system: OVCAR-3 ovarian
[35] = test system: OVCAR-4 ovarian
[36] = test system: OVCAR-5 ovarian
[37] = test system: OVCAR-8 ovarian
[38] = test system: PC-3 prostate
[39] = test system: RPMI-8226 leukemia
[40] = test system: RXF 393 renal
[41] = test system: SF-268 CNS
[42] = test system: SF-295 CNS
[43] = test system: SF-539 CNS
[44] = test system: SK-MEL-2 melanoma
[45] = test system: SK-MEL-28 melanoma
[46] = test system: SK-MEL-5 melanoma
[47] = test system: SK-OV-3 ovarian
[48] = test system: SN12C renal
[49] = test system: SNB-19 CNS
[50] = test system: SNB-75 CNS
[51] = test system: SR leukemia
[52] = test system: SW-620 colon
[53] = test system: T-47D breast
[54] = test system: TK-10 renal
[55] = test system: U251 CNS
[56] = test system: UACC-257 melanoma
[57] = test system: UACC-62 melanoma
[58] = test system: UO-31 renal

With COC(=O)c1cc(-c2ccc(S(C)(=O)=O)cc2)[nH]c1N/N=C/c1c(Cl)cccc1Cl the GI50 [1] was 0.747 µM, the TGI [1] was over 32.2 µM and the GI50 [2] was 0.334 µM. For the same compound, the TGI [2] was 4.75 µM, the GI50 [3] was 0.656 µM and the TGI [3] was over 39.4 µM. The GI50 [4] was 2 µM, the TGI [4] was over 100 µM and the GI50 [5] was 0.915 µM. The TGI [5] was 62 µM, the GI50 [6] was 0.377 µM and the TGI [6] was 13.9 µM. It also gave a GI50 [7] of 0.759 µM, a GI50 [8] of 0.491 µM and a TGI [8] of 4.72 µM. It also gave a GI50 [9] of 0.732 µM, a TGI [9] of 5.53 µM and a GI50 [10] of 1.11 µM. For the same compound, the TGI [10] was over 76.1 µM, the GI50 [11] was 0.987 µM and the TGI [11] was 19.8 µM. The GI50 [12] was 0.454 µM, the TGI [12] was over 47.9 µM and the GI50 [13] was 0.463 µM. The TGI [13] was over 100 µM, the GI50 [14] was 0.57 µM and the TGI [14] was over 100 µM. The GI50 [15] was 0.787 µM, the TGI [15] was 32.9 µM and the GI50 [16] was 0.845 µM. For the same compound, the TGI [16] was over 28.2 µM, the GI50 [17] was 0.318 µM and the TGI [17] was 3.45 µM. It also gave a GI50 [18] of 0.373 µM, a TGI [18] of 4.45 µM and a GI50 [19] of 0.482 µM. The TGI [19] was 67.3 µM, the GI50 [20] was 1.87 µM and the TGI [20] was over 100 µM. The GI50 [21] was 0.386 µM, the TGI [21] was 10 µM and the GI50 [22] was 1.61 µM. It also gave a TGI [22] of over 100 µM, a GI50 [23] of 0.624 µM and a TGI [23] of 9.77 µM. The GI50 [24] was 1.35 µM, the TGI [24] was 23.1 µM and the GI50 [25] was 0.329 µM. It also gave a TGI [25] of 20.8 µM, a GI50 [26] of 1.73 µM and a TGI [26] of over 100 µM. The GI50 [27] was 0.214 µM, the TGI [27] was 0.578 µM and the GI50 [28] was 0.514 µM. The TGI [28] was over 100 µM, the GI50 [29] was 1.02 µM and the TGI [29] was over 22.9 µM. The GI50 [30] was 0.75 µM, the TGI [30] was over 93.7 µM and the GI50 [31] was 0.367 µM. The TGI [31] was 10.3 µM, the GI50 [32] was 0.988 µM and the GI50 [33] was 0.343 µM. The TGI [33] was 11.5 µM, the GI50 [34] was 0.273 µM and the TGI [34] was 0.704 µM. The GI50 [35] was 1.7 µM, the TGI [35] was over 100 µM and the GI50 [36] was 4.08 µM. For the same compound, the TGI [36] was over 100 µM, the GI50 [37] was 1.27 µM and the TGI [37] was 98.1 µM. It also gave a GI50 [38] of 0.565 µM, a TGI [38] of over 50 µM and a GI50 [39] of 0.491 µM. It also gave a TGI [39] of over 39.1 µM, a GI50 [40] of 1.04 µM and a TGI [40] of over 100 µM. For the same compound, the GI50 [41] was 0.587 µM, the TGI [41] was over 56.4 µM and the GI50 [42] was 0.281 µM. The TGI [42] was 3.24 µM, the GI50 [43] was 0.496 µM and the TGI [43] was 4.79 µM. For the same compound, the GI50 [44] was 0.765 µM, the TGI [44] was over 52.9 µM and the GI50 [45] was 0.893 µM. It also gave a TGI [45] of over 58.2 µM, a GI50 [46] of 0.427 µM and a TGI [46] of 14.5 µM. It also gave a GI50 [47] of 0.852 µM, a TGI [47] of 28.6 µM and a GI50 [48] of 0.699 µM. For the same compound, the TGI [48] was over 100 µM, the GI50 [49] was 0.516 µM and the TGI [49] was over 100 µM. For the same compound, the GI50 [50] was 0.298 µM, the TGI [50] was 1.93 µM and the TGI [51] was over 100 µM. The GI50 [52] was 0.362 µM, the TGI [52] was over 100 µM and the GI50 [53] was 0.374 µM. The TGI [53] was over 35.7 µM, the GI50 [54] was 0.988 µM and the TGI [54] was 38.3 µM. It also gave a GI50 [55] of 0.489 µM, a TGI [55] of over 54.6 µM and a GI50 [56] of 2.82 µM. It also gave a TGI [56] of over 100 µM, a GI50 [57] of 0.391 µM and a TGI [57] of over 47.9 µM. The GI50 [58] was 0.49 µM and the TGI [58] was 37.5 µM.
